Measured values published in US20110306775A1, “SYNTHESIS AND BIOLOGICAL EVALUATION OF 2',5'-DIMETHOXYCHALCONE DERIVATIVES AS MICROTUBULE-TARGETED ANTICANCER AGENTS” (KAOHSIUNG MEDICAL UNIVERSITY, priority 2010, published 2011).

What was measured:
NTUB1 cells [1] = test: MTT cytotoxicity assay, NTUB1 cells; type: cell-based, human; settings: for IC50: mean ± SD, n = 3-5
Text: (§1) The cell lines of the present invention were an human urothelial carcinoma cell line (NTUB1), a human prostate cancer cell line (PC3), a human lung adenocarcinoma epithelial cell line (A549) and a SV-40 immortalized human uroepithelial cell line (SV-HUC1). However, the cell lines applied in the present invention includes but not limit in NTUB1, PC3, A549 and SV-HUC1 cells. Other cell lines having the same characteristics or not exactly the same characteristics are able to be used in the present invention. NTUB1, PC3 and A549 cells were maintained in RPMI 1640 and SV-HUC1 cells were maintained in F12 medium supplemented with 10% fetal bovine serum (FBS), 100 unit/mL penicillin-G, 100 μg/mL streptomycin and 2 mM glutamine. The cells were cultured at 37° C. in a humidified atmosphere containing 5% carbon dioxide.
(§2) The cytotoxic effect of compounds 1 to 18 of the present invention and cisplatin (positive control) on the cell lines was evaluated using 3-[4,5-dimethylthiazol-2-yl]-2,5-diphenyltetrazolium bromide (MTT) assay. Briefly, the cells were plated at a density of 1800 cells/well in 96-well plates and incubated in the presence of graded concentrations of compounds 1 to 18 and cisplatin at 37° C. for 72 hours. At the end of the culture period, 50 μL of MTT ([…] in PBS) was added to each well and allowed to react for 3 hours. Following centrifugation of plates at 1000 g for 10 minutes, media were removed and 150 μL dimethyl sulfoxide (DMSO) were added to each well. The proportions of surviving cells were determined by absorbance spectrometry at 540 nm. The cell viability was expressed as a percentage to the viable cells of control culture condition. The IC50 value of each group were calculated by the median-effect analysis and presented as mean±standard deviation (SD).

PC3 cells [2] = test: MTT cytotoxicity assay, PC3 cells; type: cell-based, human; settings: for IC50: mean ± SD, n = 3-5
Text: as §1, §2

NTUB1 cells [3] = test: Cell cycle analysis (propidium iodide, flow cytometer), NTUB1 cells; type: cell-based, human; settings: 24 hours, FIG. 2
Description: (§3) DNA content was determined following propidium iodide (PI) staining of cells. Briefly, 6×10^5 cells were plated and treated with 20 μM cisplatin and various concentrations of compounds 11 and 15 for 24 hours, respectively. These cells were harvested by trypsinization, washed with 1×PBS, and fixed in ice-cold MeOH at −20° C. After overnight incubation, the cells were washed with PBS and incubated with 50 μg/mL propidium iodide and 50 μg/mL RNase A in PBS at room temperature for 30 minutes. The fractions of cells in each phase of cell cycle were analyzed using flow cytometer.

PC3 cells [4] = test: Cell cycle analysis (propidium iodide, flow cytometer), PC3 cells; type: cell-based, human; settings: FIG. 3
Description: as §3

α-tubulin = test: Western blot analysis for α-tubulin (soluble vs assembled) in NTUB1 cells; type: cell-based, human; settings: NTUB1, 500 nM, 6 hours, FIG. 4
Description: NTUB1 cells were seeded at a density of 1×10^6/[…] dishes and treated with indicated concentrations of test agents for 6 hours. The cells were then washed with cold PBS and lysed by adding lysis buffer (20 mM Tris-HCl (pH 6.8), 1 mM MgCl2, 2 mM EGTA (ethylene glycol tetraacetic acid), […] aprotinin, […], 1 mM phenylmethylsulfonyl fluoride, 1 mM orthovanadate, and 0.5% Nonidet P-40). The cell lysates were centrifuged at 15,000 g for 10 min at 4° C. Soluble and assembled tubulin could be separated in supernatant and pellet fraction, respectively. The supernatants and pellets were […] by the sodium dodecyl sulfate (SDS)-polyacrylamide gel electrophoresis assay. The relative amounts of tubulins transferred on the nitrocellulose membrane were detected by anti-tubulin monoclonal antibody and horseradish peroxidase (HRP)-conjugated secondary antibody. β-Actin was used for control. Detection of immunoreactive signal was accomplished with Western blot chemiluminescent reagent.

Row | Compound | melting point | IC50 (NTUB1 cells [1]; 72 hours) | IC50 (PC3 cells [2]; 72 hours) | cytotoxicity against NTUB1 cells (in words) (NTUB1 cells [1]) | IC50 (NTUB1 cells [1]; Homo sapiens, NTUB1, 72 hours) | IC50 (PC3 cells [2]; Homo sapiens, PC-3, 72 hours) | further results
1 | CCOC(=O)c1ccc(/C=C/C(=O)c2cc(OC)ccc2OC)cc1 (hydrate or solvate) [Compound 3, 4-ethoxycarbonyl-2′,5′-dimethoxychalcone] | 118 to 119 °C | – | – | – | – | – | –
2 | N.N.[Cl][Pt][Cl] [Cisplatin, cisplatin, reference compound] | – | 3.27 ± 0.1 µM | 4.56 ± 0.76 µM | – | – | – | cell cycle distribution (NTUB1 cells [3]; NTUB1, 20 μM): accumulation of cells in G1 and S phases; sub-G1 population (NTUB1 cells [3]; NTUB1, 20 μM): increase of the population of sub-G1 phase; apoptotic cell death (PC3 cells [4]; PC3, 20 μM, 24 hours): increase of apoptotic cell death; cell cycle distribution (PC3 cells [4]; PC3, 20 μM, 24 hours): accumulation of cells in S phase
3 | COc1ccc(OC)c(C(=O)/C=C/c2ccc(C(=O)O)cc2)c1 [Compound 1, 4-carboxyl-2′,5′-dimethoxychalcone] | 214 to 215 °C | – | – | significantly cytotoxic activities | 5.7 ± 0.68 µM | 7.24 ± 0.58 µM | –
4 | 4-(2-methylethyl)carbamoyl-2′,5′-dimethoxychalcone [Compound 11] | – | 1.97 ± 0.39 µM | 1.58 ± 0.08 µM | significantly enhanced the cytotoxicity | – | – | cytotoxicity against PC3 cells (in words) (PC3 cells [2]): significantly enhanced the cytotoxicity; apoptotic cell death (NTUB1 cells [3]; NTUB1, 1 μM): increase in apoptotic cell death; cell cycle phase arrest (NTUB1 cells [3]; NTUB1, 1 μM, vs control): induced G1 phase arrest; apoptotic cells death (PC3 cells [4]; PC3, 0.3 μM): increase of the apoptotic cells death; apoptotic cells (PC3 cells [4]; PC3, 1 μM): increase of apoptotic cells
5 | COC(=O)c1ccc(/C=C/C(=O)c2cc(OC)ccc2OC)cc1 [Compound 2, 4-methoxycarbonyl-2′,5′-dimethoxychalcone] | 118 to 119 °C | – | – | – | 3.51 ± 0.45 µM | 4.85 ± 0.11 µM | –
6 | CC(=O)O[C@H]1C(=O)[C@@]2(C)[C@H]([C@H](OC(=O)c3ccccc3)[C@]3(O)C[C@H](OC(=O)[C@H](O)[C@@H](NC(=O)c4ccccc4)c4ccccc4)C(C)=C1C3(C)C)[C@]1(OC(C)=O)CO[C@@H]1C[C@@H]2O [Paclitaxel, paclitaxel, reference compound] | – | – | – | – | – | – | tubulin assembly (α-tubulin): stabilized the tubulin assembly
7 | COc1ccc(OC)c(C(C=Cc2ccc(C(=O)NC3CC3)cc2)=NC2CC2)c1 [Compound 17, N-cyclopropyl-4-[3-cyclopropylimino-3-(2′,5′-dimethoxy-phenyl)-propenyl]-benzamide] | – | 3.57 ± 0.47 µM | 4.26 ± 0.81 µM | – | – | – | –
8 | CNC(=O)c1ccc(/C=C/C(=O)c2cc(OC)ccc2OC)cc1 [Compound 8, 4-methylcarbamoyl-2′,5′-dimethoxychalcone] | 217 to 218 °C | – | – | – | 2.2 ± 0.37 µM | 2.13 ± 0.21 µM | –
9 | COc1ccc(OC)c(C(=O)/C=C/c2ccc(C(=O)O)s2)c1 [Compound 18] | 237 to 238 °C | – | – | no significant cytotoxicity | > 50 µM | – | –
10 | CCNC(=O)c1ccc(/C=C/C(=O)c2cc(OC)ccc2OC)cc1 [Compound 9, 4-ethylcarbamoyl-2′,5′-dimethoxychalcone] | 213 to 214 °C | – | – | – | 3.76 ± 0.4 µM | 4.18 ± 0.23 µM | –
